The results in this text go back to patent US4939175A, “Use of N,N-dimethyl-1-[1-(4-chlorophenyl)cyclobutyl]-3-methylbutylamine” (priority 1988, dated 1990).

Test [1] concerns memory defect artificially induced by electroconvulsive shock in mice. The experiment in a line: Memory defect artificially induced by electroconvulsive shock in mice (step-through test). Type of test: in vivo, C 57 BL/6 male mice. The conditions noted are these: ECS +; for Number of mice showing latency longer than 300 seconds: 1 hour before testing trial, 10 mice; for Amnestic syndrome rate: control ECS + 80, ECS - 40. As for the experimental part:
[…]. The test was carried out by using a box divided into two rooms (light and dark). The dark room (23.5 cm in height, 12 cm in width and 24 cm in length) was surrounded by black inner walls and provided with a stainless steel bar on the floor to give the mouse an electric shock. The light room (triangular in shape with 15 cm in height, 13 cm in bottom side length and 12 cm in oblique-side length) was surrounded by transparent walls except for the partition wall, provided with a guillotine door (5 cm in height and 3 cm in width) at the center of the partition wall, and illuminated with a 100 Watt electric bulb at a position of 50 cm above the floor.
The test was carried out according to the procedures as follows:
After the mouse was put in the light room, the guillotine door was opened. When the limbs of the mouse entered into the dark room, the door was closed. After keeping the mouse for 10 seconds in the dark room, it was brought back to the home cage.
The mouse was put in the light room at the time of 30 minutes after the taming trial, and then the guillotine door was opened. When the limbs of the mouse entered into the dark room, the door was closed and 0.4 mA of electric shock was applied to the limbs of the mouse for 3 seconds. Then, the mouse was brought back to the home cage.
The mouse was put in the light room at the time of 24 hours after the acquisition trial, and then the guillotine door was opened.
Electroconvulsive shock (30 mA, 0.5 second) was applied to the mouse at its ears immediately after the acquisition trial, which caused tetany on the mouse. The mice, which survived after the righting reflex had disappeared,were subjected to the testing trial 24 hours later.
The test compound was dissolved in distilled water, and the solution was orally administered, in a dose shown in Table 1 to each group consisting of 10 heads at the time of one hour before the testing trial.
The testing trial (3) was conducted at one hour after the test compound administration, and the reaction latency was examined for each test mouse. The obtained results are shown in Table 1, and Amnestic syndrome rate (%) is expressed as follows: [formula]

In test [2] the test system is inhibition of conditioned avoidance response induced by reserpine in rats. Description: Inhibition of conditioned avoidance response induced by reserpine in rats. Type of test: in vivo, Std-Wistar male rats. As for the experimental part: Effect of the test samples on the inhibition of conditioned avoidance response induced by reserpine in rats
Std-Wistar male rats (8 to 9 week age) weighing of 270 to 300 g were fed under the conditions of 23±2° C., 60±10% R.H. and artificial lighting from 7 AM to 7 PM for a week, and then subjected to the test.
The test was carried out by using a shuttle box. The shuttle box used herein was a rectangular box, which was equipped with a buzzer for conditioned stimulus at the upper part and grids of 2 mm in diameter, for non-conditioned stimulus, at intervals of 1 cm on the floor, and divided into two equal sized compartments by a hurdle of 5 cm in height.
The schedule for inducing the conditioned avoidance response was controlled by a computer, and all the observed results of avoidance or escape response were recorded automatically.
The avoidance condition was carried out as follows:
After the conditioned stimulus of the buzzer with sound signal for 5 seconds, the non-conditioned stimulus of the foot shock was given for 5 seconds to rats. Each stimulus was stopped immediately, if the rat jumped over the hurdle to the other compartment during the conditioned or non-conditioned stimulus.
The above-mentioned rats were put on the trials for 25 times. Then the rats were given reserpine (1 mg/kg, intraperitoneally). The rats were tested for 15 times at the time of 18 to 20 hours after the reserpine administration, and then they were divided into several groups ([…]).
The test sample was dissolved in distilled water and administered orally to each group at 24 to 26 hours after the reserpine administration. For reference, distilled water as control sample, and amitriptyline and amantadine as test drugs were used.
At one hour after the test sample administration, the rats were put on the trials for 25 times and the conditioned avoidance responce was compared between the control group (distilled water administration), the test compound-administered group and the test drug-administered groups.

Test [3] has as its system depletion of dopamine induced by MPTP in mice whole brain. Description: animal or person. Type of test: in vivo, SlC: ddy strain male mice. The conditions noted are these: Mus musculus, po, 168 h, MPTP 50 mg/kg s.c., read-out: Percentage of the amount of dopamine in the treated group against the amount of dopamine in the non-treated group; for response vs control in vivo at 10 mg/kg: 10 mg/kg oral.

Test [4] concerns re-uptake of ^3 H-dopamine. Description: Re-uptake of 3H-dopamine in vitro (synaptosomes, P2 fraction of whole brain). Type of test: biochemical, Std: Wistar strain male rat. Conditions: Experiment I, rat brain synaptosomes, 37° C., 20 minutes. The procedure: Effect of the test samples on the re-uptake of ^3 H-dopamine in vitro
P2 fraction was prepared from the whole brain of Std: Wistar strain male rat. […] The obtained mixture was incubated at 37° C. for 20 minutes and then subjected to the suction filtration with Whatman GF/B filter paper.
The obtained filter paper was put in a vial containing 10 ml of toluene type scintillator and its radioactivity was measured by means of liquid scintillation counter. The amount of the specific re-uptake of ^3 H-dopamine was obtained by subtracting the amount of re-uptake at 0° C. as blank.

Test [5] deals with depletion of serotonin induced by p-chloroamphetamine. Description: Depletion of serotonin (5-HT) induced by p-chloroamphetamine (whole brain). It counts as in vivo, SlC:ddy mice. Conditions: p-chloroamphetamine 10 mg/kg i.p., control 48 ± 6, **p < 0.01. As for the experimental part: Effect of the test samples on the depletion of serotonin (hereinafter referred to as "5-HT") induced by p-chloroamphetamine
The test sample was administered orally to SlC:ddy made mice and after 60 minutes, p-chloroamphetamine (10 mg/kg) was injected intraperitoneally.
At 6 hours later, the mice were decapitated. The whole brain was rapidly removed and homogenized in 0.06M perchloric acid with N-methylserotonin (10 μg/ml) as an internal standard. The homogenate was centrifuged and then the amount of 5-HT in the supernatant was determined by high performance liquid chromatography with electrochemical detection.
Amitriptyline was used as the reference drug and distilled water was used as control sample.

In test [6] the test system is sleeping time induced by thiopental. The experiment in a line: Sleeping time induced by thiopental. It counts as in vivo, Std: Wistar male rats. The conditions noted are these: thiopental 40 mg/kg i.v., control 500.8 ± 12.0, **p < 0.01. The procedure:
Effect of the test samples on the sleeping time induced by thiopental
The test sample was administered orally to Std: Wistar male rats, and at 60 minutes later, sodium thiopental (40 mg/kg) was injected intravenously.
The duration of sleeping time was determined as the time period between the injection of thiopental and return of the righting reflex.
Distilled water was used as control sample.

Like-named read-outs stand apart in the source and are kept apart here.

Take `CC(C)CC(N(C)C)C1(c2ccc(Cl)cc2)CCC1.Cl` (stereo not shown) [Test compound, N,N-dimethyl-1-[1-(4-chlorophenyl)cyclobutyl]3-methylbutylamine hydrochloride]: the “Number of mice showing latency longer than 300 seconds” value in test [1] (0.3 mg/kg oral) was determined as 4; in test [1] (1.0 mg/kg oral) it was 3; in test [1] (3.0 mg/kg oral), 7; in test [1] (10.0 mg/kg oral), 9. The Amnestic syndrome rate in test [1] (0.3 mg/kg oral) is on record as 60%; in test [1] (1.0 mg/kg oral), 70%; in test [1] (3.0 mg/kg oral), 30%; in test [1] (10.0 mg/kg oral), 10%. In addition, the “Conditioned avoidance response 1 hour after administration of the test sample” value in test [2] (10 mg/kg oral, reserpine 1 mg/kg, control 2) is recorded as 82%. In test [2] (baseline before test sample, 10 mg/kg group), the “Conditioned avoidance response before administration of reserpine” value is 90%. In test [2] (reserpine 1 mg/kg i.p., before test sample, 10 mg/kg group), the “Conditioned avoidance response 18 to 20 hours after administration of reserpine” value is 2%. Further, the response vs control in vivo at 10 mg/kg in test [3] (Experiment I, control 71 ± 11, *P < 0.05, **P < 0.01) came to 83 ± 12%; in test [3] (Experiment II, control 88 ± 20, *P < 0.05), 111 ± 8%. For the same compound, the response vs control in vivo at 30 mg/kg in test [3] (Experiment I, 30 mg/kg oral, control 71 ± 11, *P < 0.05, **P < 0.01) stood at 85 ± 6%. For the same compound, the concentration for half-maximal inhibition (IC50) – broadly, the concentration needed to halve the response being measured – in test [4] turned out to be 2000 nM. In addition, the entries for the “Percentages of the amount of 5-HT in the treated group against the amount of 5-HT in the non-treated group” value in test [5] (3 mg/kg oral) and in test [5] (10 mg/kg oral) were 64 ± 8% and 103 ± 10%, respectively. Besides, the Sleeping time in test [6] (10 mg/kg oral) was 345.6 ± 82.2 s; in test [6] (30 mg/kg oral), 338.5 ± 43.7 s.
